What was measured:
giant foxtail = assay: Test C postemergence; format: in vivo, Setaria faberii
Procedure, shortened: (§1)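 Seeds were sown in loam–sand blend and sprayed preemergence, while plants at 1- to 4-leaf stage (2–18 cm) in peat-based medium received postemergence sprays; test chemicals were formulated in a non-phytotoxic solvent with surfactant. After 13–15 days in a greenhouse, injury was rated visually against controls, 0 (no effect) to 100 (complete control).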

barnyardgrass [1] = assay: Test C postemergence; format: in vivo, Echinochloa crus-galli
Procedure, shortened: as §1

barnyardgrass [2] = assay: Test A preemergence; format: in vivo, Echinochloa crus-galli
Procedure, shortened: (§2)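 Pre- and postemergence greenhouse screen. Soil: loam + sand. Spray carrier: solvent mixture, non-phytotoxic, with surfactant. Post timing at 1–2 leaves, height 2–10 cm. Readout: visual injury on a 0–100 scale roughly 10 days after application, untreated plants as reference.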

lambsquarters = assay: Test C postemergence; format: in vivo, Chenopodium album
Procedure, shortened: as §1

barnyardgrass [3] = assay: Test A postemergence; format: in vivo, Echinochloa crus-galli; conditions: 0 to 100 scale where 0 is no effect and 100 is complete control
Procedure, shortened: as §2

sedge, umbrella = assay: Test B flooded paddy test; format: in vivo, Cyperus difformis; conditions: Flood, 250 g ai/ha; 0 to 100 scale where 0 is no effect and 100 is complete control
Procedure, shortened: (§3)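 Plants at 2-leaf stage; pots flooded to 3 cm above soil and compound applied directly into paddy water, depth held throughout. After 13 to 15 days in greenhouse, visual rating versus controls on 0 (no effect) to 100 (complete control) scale.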

large (Lg) crabgrass [4] = assay: Test C postemergence; format: in vivo, Digitaria sanguinalis
Procedure, shortened: as §1

barnyardgrass [5] = assay: Test B flooded paddy test; format: in vivo, Echinochloa crus-galli; conditions: Flood, 250 g ai/ha; 0 to 100 scale where 0 is no effect and 100 is complete control
Procedure, shortened: as §3

pigweed = assay: Test A postemergence; format: in vivo, Amaranthus retroflexus; conditions: 0 to 100 scale where 0 is no effect and 100 is complete control
Procedure, shortened: as §2

wild oat = assay: Test C postemergence; format: in vivo, Avena fatua
Procedure, shortened: as §1

large (Lg) crabgrass [6] = assay: Test A preemergence; format: in vivo, Digitaria sanguinalis
Procedure, shortened: as §2

chickweed = assay: Test C postemergence; format: in vivo, Stellaria media
Procedure, shortened: as §1

rice = assay: Test B flooded paddy test; format: in vivo, Oryza sativa; conditions: Flood, 250 g ai/ha; 0 to 100 scale where 0 is no effect and 100 is complete control
Procedure, shortened: as §3

morningglory = assay: Test C postemergence; format: in vivo, Ipomoea coccinea
Procedure, shortened: as §1

yellow nutsedge = assay: Test C postemergence; format: in vivo, Cyperus esculentus
Procedure, shortened: as §1

[7] = 16 g ai/ha, postemergence, 0 is no effect, 100 is complete control
[8] = 31 g ai/ha, postemergence, visual rating, scale 0 to 100 (0 no effect, 100 complete control), 13 to 15 days
[9] = 125 g ai/ha, postemergence, visual rating, scale 0 to 100 (0 no effect, 100 complete control)
[10] = Postemergence, 62 g ai/ha, scale 0 to 100 (0 no effect, 100 complete control), 13 to 15 days
[11] = 500 g ai/ha, 0 to 100 scale where 0 is no effect and 100 is complete control

For Clc1cnc(Oc2cccc(Br)c2-n2cc(Cl)cn2)nc1 [Compound 221], the “Plant response rating (0 to 100), Foxtail, Giant” value (giant foxtail; [7]) was 0, the “Foxtail, Giant plant response rating” value (giant foxtail; [8]) was 5 and the “Plant response rating, Foxtail, Giant” value (giant foxtail; [9]) was 5. The “Plant response rating, Foxtail, Giant” value (giant foxtail; [10]) was 5, the “Plant response rating (0 to 100), Barnyardgrass” value (barnyardgrass [1]; [7]) was 5 and the “Barnyardgrass plant response rating” value (barnyardgrass [1]; [8]) was 5. For the same molecule, the “Plant response rating, Barnyardgrass” value (barnyardgrass [1]; [9]) was 10, the “Plant response rating, Barnyardgrass” value (barnyardgrass [1]; Postemergence, 62 g ai/ha, scale 0 to 100 (0 no effect, 100 complete control)) was 5 and the “Barnyardgrass plant response rating (0 to 100 scale, 0 is no effect, 100 is complete control)” value (barnyardgrass [2]; 125 g ai/ha) was 10. For the same molecule, the “Barnyardgrass plant response rating” value (barnyardgrass [2]; [11]) was 90, the “Plant response rating (0 to 100), Lambsquarters” value (lambsquarters; [7]) was 15 and the “Lambsquarters plant response rating” value (lambsquarters; [8]) was 60. The “Plant response rating, Lambsquarters” value (lambsquarters; [9]) was 65, the “Plant response rating, Lambsquarters” value (lambsquarters; [10]) was 50 and the “Barnyardgrass plant response rating” value (barnyardgrass [3]; 125 g ai/ha) was 50. The “Plant response rating, Barnyardgrass” value (barnyardgrass [3]; 500 g ai/ha) was 100, the “Plant response rating, Sedge, Umbrella” value (sedge, umbrella) was 0 and the “Plant response rating (0 to 100), Crabgrass, Large” value (large (Lg) crabgrass [4]; [7]) was 5. For the same molecule, the “Crabgrass, Large plant response rating” value (large (Lg) crabgrass [4]; [8]) was 5, the “Plant response rating, Crabgrass, Large” value (large (Lg) crabgrass [4]; [9]) was 25 and the “Plant response rating, Crabgrass, Large” value (large (Lg) crabgrass [4]; [10]) was 5. The “Plant response rating, Barnyardgrass” value (barnyardgrass [5]) was 0, the “Pigweed plant response rating” value (pigweed; 125 g ai/ha) was 100 and the “Plant response rating, Pigweed” value (pigweed; 500 g ai/ha) was 100. For the same molecule, the “Plant response rating (0 to 100), Oat, Wild” value (wild oat; [7]) was 5, the “Oat, Wild plant response rating” value (wild oat; [8]) was 5 and the “Plant response rating, Oat, Wild” value (wild oat; [9]) was 30. The “Plant response rating, Oat, Wild” value (wild oat; [10]) was 10, the “Crabgrass, Large plant response rating (0 to 100 scale)” value (large (Lg) crabgrass [6]; 125 g ai/ha) was 100 and the “Crabgrass, Large plant response rating” value (large (Lg) crabgrass [6]; [11]) was 100. The “Plant response rating (0 to 100), Chickweed” value (chickweed; [7]) was 20, the “Chickweed plant response rating” value (chickweed; [8]) was 60 and the “Plant response rating, Chickweed” value (chickweed; [9]) was 50. For the same molecule, the “Plant response rating, Chickweed” value (chickweed; [10]) was 60, the “Plant response rating, Rice” value (rice) was 0 and the “Plant response rating (0 to 100), Morningglory” value (morningglory; [7]) was 45. For the same molecule, the “Morningglory plant response rating” value (morningglory; [8]) was 40, the “Plant response rating, Morningglory” value (morningglory; [9]) was 55 and the “Plant response rating, Morningglory” value (morningglory; [10]) was 50. For the same molecule, the “Plant response rating (0 to 100), Nutsedge, Yellow” value (yellow nutsedge; [7]) was 0, the “Nutsedge, Yellow plant response rating” value (yellow nutsedge; [8]) was 0 and the “Plant response rating, Nutsedge, Yellow” value (yellow nutsedge; [9]) was 10. For the same molecule, the “Plant response rating, Nutsedge, Yellow” value (yellow nutsedge; [10]) was 5.
